“And” between values parts separate entries of the source, which are not always exact repeats. Equal values may be shown once.
Key:
[1] = Crystal, Calculated from knudsen effusion weight loss
[2] = molar heat capacity at constant pressure; conditions: 101.33 kPa, Crystal, Small sample (50 mg) DSC

O=C1NCCCN1 [tetrahydropyrimidin-2(1H)-one]
Conditions	molar heat capacity at constant pressure [J/K/mol]	vapor or sublimation pressure
[1], 363.19 K	–	0.0001292 kPa and 0.0001261 kPa and 0.0001216 kPa
[1], 365.18 K	–	0.0001581 kPa and 0.0001562 kPa and 0.0001488 kPa
[1], 367.14 K	–	0.0001903 kPa and 0.0001913 kPa and 0.0001858 kPa
[1], 369.19 K	–	0.0002232 kPa and 0.0002283 kPa
[1], 371.17 K	–	0.000271 kPa and 0.0002737 kPa and 0.0002643 kPa
[1], 373.15 K	–	0.0003343 kPa and 0.0003328 kPa
[1], 375.18 K	–	0.0003988 kPa and 0.000402 kPa
[1], 377.18 K	–	0.0004813 kPa and 0.0004804 kPa and 0.0004655 kPa
[1], 379.16 K	–	0.0005717 kPa and 0.0005887 kPa and 0.0005753 kPa
[1], 381.18 K	–	0.000719 kPa and 0.000702 kPa and 0.000673 kPa
[1], 383.18 K	–	0.0008587 kPa and 0.0008463 kPa
[1], 385.16 K	–	0.001027 kPa and 0.0009846 kPa
[2], 268.15 K	117.2	–
[2], 270.15 K	118	–
[2], 275.15 K	120.1	–
[2], 280.15 K	122.2	–
[2], 285.15 K	124.1	–
[2], 290.15 K	126.2	–
[2], 295.15 K	128.1	–
[2], 298.15 K	129.5	–
[2], 300.15 K	130.4	–
[2], 305.15 K	132.7	–
[2], 310.15 K	135.3	–
[2], 315.15 K	137.8	–
[2], 320.15 K	140.2	–
[2], 325.15 K	142.6	–
[2], 330.15 K	145.1	–
[2], 335.15 K	147.3	–
[2], 340.15 K	150.1	–
[2], 345.15 K	152.2	–
[2], 350.15 K	155.1	–
[2], 355.15 K	157.2	–
[2], 360.15 K	159.9	–
[2], 365.15 K	163.8	–
[2], 370.15 K	166.5	–
[2], 375.15 K	169.8	–
[2], 380.15 K	172.4	–
[2], 385.15 K	175.1	–
[2], 390.15 K	177.3	–
[2], 395.15 K	180.4	–
[2], 400.15 K	183.3	–
[2], 405.15 K	186.5	–
[2], 410.15 K	189.8	–
[2], 415.15 K	193.9	–
[2], 420.15 K	197.1	–
[2], 425.15 K	200.8	–
[2], 430.15 K	202.7	–
[2], 435.15 K	204.9	–
[2], 440.15 K	207.5	–
[2], 445.15 K	210.3	–
[2], 450.15 K	213.3	–
[2], 455.15 K	215.9	–
[2], 460.15 K	219.1	–
[2], 465.15 K	222.2	–
[2], 470.15 K	224.9	–
